The subject of this assay is T1, BLC23O.
T1 construct: 6xHis-tag, expressed in E. coli BL21 (DE3); Ni-NTA and size exclusion; Mn2+-dependent
Briefly: absorbance of ring-cleavage product at […] nm, Michaelis-Menten fit. The assay is classed as biochemical, Halalkalibacterium ligniniphilum. The settings on record: 50 mM HEPES pH 7.6, 10 μM Mn2+, 32.5 °C (optimal conditions).

In the case of `Cc1cccc(O)c1O` [3-methylcatechol], the Km stood at 540 ± 20 µM.

These data come from PMC10620931, “Assay Development for Metal-Dependent Enzymes—Influence of Reaction Buffers on Activities and Kinetic Characteristics” (ACS Omega, 2023).
